Earlier results, collected in PMC11542186, “Pin1 WW Domain Ligand Library Synthesized with an Easy Solid-Phase Phosphorylating Reagent” (Biochemistry, 2024).
Where a SMILES comes first, the peptide text is derived from it. [ ]: non-standard residue; d: D form. pT = C[C@@H](OP(=O)(O)O)[C@H](N)C(=O)O

Biological target: isolated Pin1 WW domain
Design: method as in PMID 16033261
Conditions: measured by NMR for the isolated Pin1 WW domain; cited from earlier work

CC(=O)N[C@H](C(=O)N1CCC[C@H]1C(N)=O)[C@@H](C)OP(=O)(O)O [Ac–pThr–Pro–NH2] (Ac-[pT]-Pro-NH2)
Kd: 150 µM
